The values that follow come from article PMC8504695, “Structure-Based Virtual Screening and Identification of Potential Inhibitors of SARS-CoV-2 S-RBD and ACE2 Interaction” (Frontiers in Chemistry, 2021).

For data set [1], the target named is SARS-CoV-2 S-RBD/ACE2 interaction (UniProt P0DTC2+Q9BYF1). As to the kind of experiment: cell-based. Details: species or system SARS-CoV-2 / human. Conditions: for inhibition at 20 µM / inhibition at 50 µM: HEK293; for IC50: HEK293 cells, 3 h incubation, n = 3, read-out: IC50 NanoBiT (inhibition of SARS-CoV-2 S-RBD/ACE2 interaction).
The target of data set [2] is NanoLuc luciferase (Oplophorus gracilirostris, UniProt Q9GV45, A31E/A60N/A81I/F95D/I117V/K70R/L54V/L99Q/M102K/N193R/P142E/Q151K/Q38R/Q45L/V71I/Y165I). As to the kind of experiment: cell-based. Conditions: read-out: IC50 NanoLuc (inhibition of NanoLuc luciferase).
In data set [3] the test system is SARS-CoV-2-S pseudovirus. As to the kind of experiment: microbe, parasite or virus in culture. The class given is cell-based. Conditions: for IC50: Pseudovirus, HEK-293T, read-out: IC50 of Anti-SARS-CoV-2-S pseudovirus; for %I, SARS-CoV-2-S pseudovirus inhibition ratio at MNCC: fitted from the inhibition curve.
For data set [4], the target named is human ACE2 (Homo sapiens, UniProt Q9BYF1). As to the kind of experiment: SPR binding assay, immobilized ACE2 (BIAcore T200). Conditions: for Kd: immobilized ACE2, PBS pH 7.4, 25°C; for Binding to human ACE2 by SPR (in words): up to 100,000 nM analyte. On the procedure:
A BIAcore T200 instrument (GE Healthcare Life Sciences, United States) was used to evaluate the binding affinity of the test compounds to human ACE2 or SARS-CoV-2 S-RBD as previously described ([Li et al., 2017]). Briefly, both proteins were respectively immobilized on the different channels of CM5 sensor chip by a standard amine-coupling approach at a flow rate of 10 μL/min in 10 mM sodium acetate buffer (pH 4.0). The sensor surface was activated with a 7 min injection of the mixture of 50 mM N-hydroxysuccinimide (NHS) and 200 mM 1-ethyl-3-(3-dimethylaminopropyl) carbodiimide (EDC). Then 10 μg/ml of human ACE2 or 50 μg/ml of SARS-CoV-2 S-RBD was injected for 420 s and the surface was blocked with 1 M ethanolamine, pH 8.5. Series concentrations of the test compounds were injected into the flow system at a flow rate of 30 μL/min for 90 s, and the dissociation was 120 s. All binding analysis was performed in phosphate buffered saline (PBS) with 0.05% (v/v) Tween-20 and 1% DMSO (pH 7.4) at 25°C. Prior to analysis, double reference subtractions and solvent corrections were made to eliminate bulk refractive index changes, injection noise, and data drift. The binding affinity was determined by fitting to a Langmuir 1:1 binding model within the BIAcore Evaluation software (GE Healthcare Life Sciences, United States).

The target in data set [5] is SARS-CoV-2 S-RBD (Severe acute respiratory syndrome coronavirus 2, UniProt P0DTC2). As to the kind of experiment: SPR binding assay, immobilized S-RBD (BIAcore T200). Conditions: for Kd: immobilized S-RBD, PBS pH 7.4, 25°C; for Binding to SARS-CoV-2 S-RBD by SPR (in words): up to 100,000 nM analyte. (In general: In SPR one partner is held on a chip, and binding of the other changes the refractive index at the surface.)

The subject of data set [6] is HEK293 cells. Conditions: human.
The test system of data set [7] is ACE2-expressing HEK293T cells. Conditions: concentration required to retain cell viability by 90%.
A short description of data set [8]: in vitro. Conditions: human.
Data set [9] relates to SARS-CoV-2 pseudovirus. Conditions: cited from earlier work.

The structures appear in SMILES notation.

human ACE2, sequence (Q9BYF1 18-805): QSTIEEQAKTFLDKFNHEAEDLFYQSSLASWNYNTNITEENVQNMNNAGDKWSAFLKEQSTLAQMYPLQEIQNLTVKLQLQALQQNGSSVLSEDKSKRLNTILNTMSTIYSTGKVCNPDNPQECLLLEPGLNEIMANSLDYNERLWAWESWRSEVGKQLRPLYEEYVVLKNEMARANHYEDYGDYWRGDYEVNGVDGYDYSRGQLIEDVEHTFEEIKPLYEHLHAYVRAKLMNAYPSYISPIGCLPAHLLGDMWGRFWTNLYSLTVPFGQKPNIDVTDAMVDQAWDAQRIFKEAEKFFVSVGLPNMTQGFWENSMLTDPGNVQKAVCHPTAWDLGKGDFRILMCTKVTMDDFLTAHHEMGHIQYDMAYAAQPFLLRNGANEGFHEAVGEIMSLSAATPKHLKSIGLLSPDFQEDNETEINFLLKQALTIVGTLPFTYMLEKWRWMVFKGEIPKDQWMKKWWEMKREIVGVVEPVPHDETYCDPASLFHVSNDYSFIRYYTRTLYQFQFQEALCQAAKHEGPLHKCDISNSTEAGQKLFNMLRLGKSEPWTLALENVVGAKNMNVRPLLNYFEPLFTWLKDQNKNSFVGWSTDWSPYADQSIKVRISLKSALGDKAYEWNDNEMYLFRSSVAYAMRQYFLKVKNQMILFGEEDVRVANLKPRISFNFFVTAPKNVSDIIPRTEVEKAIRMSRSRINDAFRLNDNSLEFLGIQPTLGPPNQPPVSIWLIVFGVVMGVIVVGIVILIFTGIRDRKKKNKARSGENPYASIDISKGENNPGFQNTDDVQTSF
NanoLuc luciferase, sequence (Q9GV45 other isoform, or with tags, fused parts or gaps with the stated changes): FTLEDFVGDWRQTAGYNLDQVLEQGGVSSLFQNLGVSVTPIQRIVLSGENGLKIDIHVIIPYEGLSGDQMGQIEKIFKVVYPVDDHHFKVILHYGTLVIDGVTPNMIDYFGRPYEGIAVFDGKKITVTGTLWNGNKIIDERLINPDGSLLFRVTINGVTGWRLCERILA
SARS-CoV-2 S-RBD/ACE2 interaction, sequence (Q9BYF1 19-615 limits assumed, other chains not shown): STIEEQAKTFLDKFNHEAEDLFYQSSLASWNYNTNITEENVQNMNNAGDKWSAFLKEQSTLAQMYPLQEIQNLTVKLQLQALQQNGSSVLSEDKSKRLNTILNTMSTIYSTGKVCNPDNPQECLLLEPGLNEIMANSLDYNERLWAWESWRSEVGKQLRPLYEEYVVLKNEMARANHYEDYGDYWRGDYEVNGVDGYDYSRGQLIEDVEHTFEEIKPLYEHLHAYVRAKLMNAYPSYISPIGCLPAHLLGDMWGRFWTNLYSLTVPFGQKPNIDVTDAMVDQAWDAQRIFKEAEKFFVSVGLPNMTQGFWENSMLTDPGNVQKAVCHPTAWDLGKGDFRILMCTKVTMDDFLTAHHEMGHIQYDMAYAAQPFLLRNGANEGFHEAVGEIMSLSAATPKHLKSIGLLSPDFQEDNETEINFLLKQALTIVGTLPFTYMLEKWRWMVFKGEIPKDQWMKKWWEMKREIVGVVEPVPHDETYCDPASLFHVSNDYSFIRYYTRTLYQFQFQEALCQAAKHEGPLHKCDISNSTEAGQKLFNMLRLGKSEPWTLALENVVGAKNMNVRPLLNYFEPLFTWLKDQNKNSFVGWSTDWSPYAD

As usually defined, the inhibition is the change of the read-out against control, counted positive when it falls. In the case of `O=C(N/N=C/c1cc([N+](=O)[O-])ccc1Cl)c1cccc(Br)c1` [DC-RA016-1], in [1], the inhibition at 20 µM stood at 3.1% and the inhibition at 50 µM was 7.4%.

For `O=C(N/N=C/c1cc([N+](=O)[O-])ccc1Cl)c1ccccc1I` [DC-RA016-2], in data set [1], the inhibition at 20 µM came to 0.8% and the inhibition at 50 µM is 22.5%.

For the compound `O=C(N/N=C/c1cc([N+](=O)[O-])ccc1Cl)c1cccc([N+](=O)[O-])c1` [DC-RA016-3], in data set [1], the inhibition at 20 µM was 1.7% and the inhibition at 50 µM was determined as 24.2%.

On to `Cc1ccccc1C(=O)N/N=C/c1cc([N+](=O)[O-])ccc1Cl` [DC-RA016-4], for which, in data set [1], the inhibition at 20 µM was -3.8% and the inhibition at 50 µM was -24.9%.

On to `O=C(N/N=C/c1cc([N+](=O)[O-])ccc1Cl)c1ccccc1O` [DC-RA016-5], for which, in data set [1], the inhibition at 20 µM turned out to be 8.7% and the inhibition at 50 µM worked out at 24.9%.

Turning to `O=C(N/N=C/c1cc([N+](=O)[O-])ccc1Cl)c1ccc(O)cc1O` [DC-RA016-6], in data set [1], the inhibition at 20 µM was determined as 1.9% and the inhibition at 50 µM came out at 2.9%.

As for `O=C(N/N=C/c1cc([N+](=O)[O-])ccc1Cl)c1ccc(O)cc1` [DC-RA016-7], in data set [1], the inhibition at 20 µM was 10.6% and the inhibition at 50 µM stood at 20.2%.

As for `O=C(N/N=C/c1cc([N+](=O)[O-])ccc1Cl)c1ccc(O)c(O)c1` [DC-RA016-8], in [1], the inhibition at 20 µM was found to be 6.7% and the inhibition at 50 µM was -18.3%.

Regarding `O=C(N/N=C/c1ccccc1O)c1cc(O)cc(O)c1` [DC-RA016-9], in [1], the inhibition at 20 µM is 0.6%, the inhibition at 50 µM was found to be 88.6% and the IC50 came to 73.8 µM.

On to `Cc1ccccc1/C=N/NC(=O)c1cc(O)cc(O)c1` [DC-RA016-10], for which, in [1], the inhibition at 20 µM is -6.5% and the inhibition at 50 µM was -17.7%.

Take `Cc1cccc(/C=N/NC(=O)c2cc(O)cc(O)c2)c1` [DC-RA016-11]: in [1], the inhibition at 20 µM is 4.8% and the inhibition at 50 µM was found to be 12.7%.

Turning to `O=C(N/N=C/c1ccc(Cl)c([N+](=O)[O-])c1)c1cc(O)cc(O)c1` [DC-RA016-12], in data set [1], the inhibition at 20 µM worked out at 61.3%, the inhibition at 50 µM was found to be 88.9% and the IC50 came to 26.1 µM.

A word on the Kd: it is a measure of binding affinity in units of concentration. High values mean a looser complex, low ones a tighter complex. Consider `O=C(N/N=C/c1cc([N+](=O)[O-])ccc1Cl)c1cc(O)cc(O)c1` [DC-RA016], for which, in [1], the inhibition at 20 µM was 73.1%, the inhibition at 50 µM turned out to be 73.1% and the IC50 was determined as 26.6 µM. Further, the IC50 in [2] was above 100 µM. In data set [3], the “SI, selectivity index” value is given as above 4.46; the IC50 amounted to 22.4 µM; the “%I, SARS-CoV-2-S pseudovirus inhibition ratio at MNCC” value turned out to be 52.08%. Moreover, in data set [4], the Kd stood at 147 µM and the “Binding to human ACE2 by SPR (in words)” value was “could bind”. For the same compound, in [5], the affinity, expressed as Kd, was 85.1 µM and the “Binding to SARS-CoV-2 S-RBD by SPR (in words)” value (shortened to “Binding to SARS-CoV-2 S-RBD”) is given as “showed binding”. For the same compound, the “CC50 / IC50 Cytotox (HEK293 cell proliferation)” value (from here on “CC50 / IC50 Cytotox”) in data set [6] is above 100.00 µM. Moreover, the “MNCC, maximum non-cytotoxic concentration” value in data set [7] was determined as 95.81 µM. In data set [8], this compound registered a CC50 above 100 µM.

As for `COc1ccc(C(=O)C[C@]2(O)C(=O)N(CCOc3ccccc3OC)c3ccccc32)c(OC)c1` [DC-RA076], the results for the IC50 in data set [1], in data set [2] and in data set [3] were 75.6 µM, above 100 µM and 8.37 µM, respectively. In data set [3], the “SI, selectivity index” value is reported as 2.95. In addition, the “%I, SARS-CoV-2-S pseudovirus inhibition ratio at MNCC” value in data set [3] is reported as 5.75%. Further, in [4], the “Binding to human ACE2 by SPR (in words)” value was “no binding”. For the same compound, the “Binding to SARS-CoV-2 S-RBD” value in data set [5] is “no binding”. The “CC50 / IC50 Cytotox” value in data set [6] is above 100.00 µM. Moreover, in [7], the “MNCC, maximum non-cytotoxic concentration” value stood at 2.64 µM. The same compound displayed a CC50 in data set [8] of 24.7 µM.

For `COc1cc(-c2nc3ccccc3s2)ccc1OCC(=O)Nc1ccc(C)cc1` [DC-RA087], the figures for the IC50 in data set [1], in data set [2] and in data set [3] were 86.2 µM, above 100 µM and 21.1 µM, respectively. In data set [3], the “SI, selectivity index” value was above 4.75. The “%I, SARS-CoV-2-S pseudovirus inhibition ratio at MNCC” value in data set [3] stood at 36.74%. In [4] (immobilized ACE2), the “kd to ACE2 (SPR)” value was found to be 0.3217 s⁻¹. Moreover, in data set [4] (pH 7.4, immobilized ACE2, read-out: ka to ACE2 (SPR)), the kon was 56.4 M⁻¹ s⁻¹. In addition, the “Binding to human ACE2 by SPR (in words)” value in data set [4] is given as “could bind”. In addition, the “Binding to SARS-CoV-2 S-RBD” value in data set [5] was “No binding”. The “CC50 / IC50 Cytotox” value in [6] was above 100.00 µM. In data set [7], the “MNCC, maximum non-cytotoxic concentration” value was 14.01 µM. Also, the CC50 in data set [8] was above 100 µM.

With `CCOc1ccc(N(CC(=O)Nc2ccccc2C(=O)NCc2ccco2)S(=O)(=O)c2ccc(OC)c(OC)c2)cc1` [DC-RA106], the IC50 in data set [1] is 24.7 µM. In addition, the IC50 in data set [2] is above 100 µM. In data set [3], the “SI, selectivity index” value is on record as above 1.41; the IC50 is 70.8 µM; the “%I, SARS-CoV-2-S pseudovirus inhibition ratio at MNCC” value is 0.14%. For the same compound, in data set [4], the Kd is above 100 µM and the “Binding to human ACE2 by SPR (in words)” value is “could bind”. Moreover, in [5], the Kd was above 100 µM and the “Binding to SARS-CoV-2 S-RBD” value is “showed binding”. Further, in data set [6], the “CC50 / IC50 Cytotox” value was above 100.00 µM. In data set [7], the “MNCC, maximum non-cytotoxic concentration” value stood at 13.24 µM. This compound also gave a CC50 in [8] above 100 µM.

For `C=Cc1c(C)c2cc3nc(cc4[nH]c(cc5nc(cc1[nH]2)C(C)=C5CCC(=O)O)c(CCC(=O)OC)c4C)[C@@]1(C)C3=CC=C(C(=O)OC)[C@H]1C(=O)OC` [Visudyne], the “Antiviral activity against SARS-CoV-2 pseudovirus (in words)” value in [9] (cytotoxicity data not reported, ref Fu et al., 2020) is reported as “intense antiviral activity”.

In the case of `C[C@@]1(C(=O)O)CC[C@]2(C)CC[C@]3(C)C4=CC(=O)c5c(cc(O)c(O)c5C=O)[C@]4(C)CC[C@@]3(C)[C@@H]2C1` [demethylzeylasteral], the “Inhibitory activity against SARS-CoV-2 pseudovirus” value in data set [9] (under nontoxic concentration, ref Zhu et al., 2021) is reported as “approximately 7%”.
